Data from a melting point compilation (Tetko et al.; mined from patent text by program, amines drawn as free bases though some values may be those of a salt).

| melting point | SMILES |
| --- | --- |
| 129 °C | COC(=O)CCCc1cc2cc(Cl)ccc2n1S(=O)(=O)c1cccc2nc(C)sc12 |
| 205 to 207 °C | CCC1=Cc2cc(OCC(=O)O)c(Cl)c(Cl)c2C1=O |
| 123 to 124 °C | CCCc1c(OCCCCSc2nnc(SCC(=O)O)s2)ccc(C(C)=O)c1O |
| 114 to 115 °C | O=C(CNCCO)Nc1ccccn1 |
| 164 to 165 °C | Cc1cc2ccc(/C=C/C(=O)OCc3ccccc3)cc2[nH]1 |
| > 320 °C | O=C(O)C(=O)Nc1cccc(NC(=O)C(=O)O)c1Cl |
| 147 to 148 °C | Cc1ccc(C(=O)Nc2cn(C3CCCCO3)nc2C(=O)NCCC(F)(F)F)cn1 (stereo unspecified) |
| 248 °C | CCOc1ccc(S(=O)(=O)N2CCN(C)CC2)cc1-c1nc2c([nH]1)c1nncn1c(=O)n2CC |
| 126 to 128 °C | COC(=O)c1ccc(S(C)(=O)=O)c(C=NO)c1Cl |
| 159 to 162 °C | CCCCCCCCC=CCCCCCCCCCCCC(=O)Nc1ccc(Cl)cc1C(=O)O |
| 134 to 135 °C | COC(OC)C(CNC(=O)c1cc2cc(O)cc([N+](=O)[O-])c2[nH]1)SCc1ccccc1 (stereo unspecified) |
| 121 to 123 °C | Cc1occc1C(=O)Nc1ccc(Cl)c(C=NN2CCOCC2)c1 |
| 183 to 184 °C | CCOC(=O)C1=C(C)Nc2cc[nH]c(=O)c2C1c1ccccc1F (stereo unspecified) |
| 95 °C | CCOC(=O)Nc1ccc2oc(Cc3ccccc3)cc2c1 |
| 97 to 100 °C | COC(=O)C(Cc1ccc(Cl)cc1Cl)=NO |
| 137 to 138 °C | COCCCS(=O)(=O)NC(=O)/C=C/c1cc(OCC2CC2)nn1Cc1ccc(C(F)(F)F)cc1Cl |
| 99 °C | CCOC(=O)c1c(C)nc2c(cnn2CCCC#N)c1OCC |
| 155 to 157 °C | COc1cc(NC2CCN(Cc3ccccc3)CC2)ccc1C(N)=O |

| melting point | SMILES |
| --- | --- |
| 190 to 195 °C | CCCCCc1ccc(C(N)C(=O)O)[nH]1 (stereo unspecified) |
| 86.5 °C | CCOC=C(C(=O)CCl)C(=O)OCC |
| 148 to 158 °C | Cc1ccc(S(=O)(=O)N2CCC[C@H]2C(=O)N[C@@H](Cc2ccc(NC(=S)NCCN3CCCCC3)cc2)C(=O)O)cc1 |
| 184 to 186 °C | CCn1cc(C(=O)O)c(=O)c2cc(F)c(N3CCN(C)C(COC(C)C)C3)cc21 (stereo unspecified) |
| 206 to 207 °C | CCn1c(=O)c2c(nc(/C=C/c3cccc(OC(C)=O)c3)n2C)n(CC)c1=O |
| 152 to 154 °C | CC(=O)OC1CC(=O)N1 (stereo unspecified) |
| 74.5 to 76 °C | CC(C)C(C)(N)C(N)=O (single isomer, unassigned; (+)) |
| 141 to 144 °C | O=C(O)[C@H](Cc1ccccc1)N[C@@H](CCc1ccccc1)C(=O)OCc1ccccc1 |
| 124 to 125 °C | CCOc1ccc(C(=O)c2c(-c3ccc(OC)cc3)sc3cc(OC)ccc23)cc1 |
| 144 to 145 °C | Cc1c(Br)ccc(S(C)(=O)=O)c1C1=NOC(CCl)(CCl)C1 |
| > 300 °C | CCCn1c(=O)c2nc(-c3ccc(/C=C/C(=O)O)cc3)[nH]c2n(Cc2ccccc2)c1=O |
| 66 to 68 °C | COC(=O)CC[C@@H](C(N)=O)N1Cc2c(OCc3ccc(CN4CCOCC4)cc3)cccc2C1=O |
| 137 to 140 °C | CCOC(=O)C(=CNc1nncs1)C(=O)c1cc(F)c(Cl)nc1Cl |
| 93 °C | CCOC(=O)[C@H]1CC(OS(=O)(=O)c2ccc(C)cc2)CN1S(=O)(=O)c1ccc(C)cc1 (stereo partly specified) |
| 95 to 98 °C | CCOC(=O)N1N=C(c2ccc(N)cc2)c2cc(Cl)ccc2CC1C (stereo unspecified) |
| 265 to 270 °C | COc1cccc2c(=O)n3nc(C(N)=O)cc3[nH]c12 |
| 156 to 157 °C | CCOc1nn(-c2ccccn2)cc1CCCOc1cc(CCC(=O)O)n(-c2ccccc2)n1 |
| 81 to 82 °C | CC(C)(Oc1ccc(Cl)cc1)C(=O)NCCO[N+](=O)[O-] |

More lines, now with the values behind:

| SMILES | melting point |
| --- | --- |
| CCCOc1ccc(-c2cccc3nc(N)c4ncn(CC(C)C)c4c23)cc1 | 181 to 182 °C |
| Cc1nc2ccc(F)cc2c(=O)n1-c1ccccc1Cl | 137 to 138 °C |
| c1ccc(Nn2ccc3ccccc32)nc1 | 109 to 110 °C |
| CC1(C)OCCC2N1C(=O)C2(Sc1ccccc1)C1(O)CCSCC1 (stereo unspecified) | 191 to 192 °C |
| Cc1[nH]c(-c2ccccc2)c(N)c1C(=O)Nc1ccccc1 | 271 to 273 °C |
| CCCCCCCCCCCCCCOc1cc(OCCCCCCc2cccc(O)c2O)cc(C(=O)OC)c1 | 77 to 79 °C |
| CC(C)Oc1ccc([N+](=O)[O-])cc1NC(=O)Nc1cccnc1 | 231 to 232 °C |
| CC(CCCc1ccccc1)n1nnc2c(=O)[nH]c(C(=O)c3ccccc3)nc21 (stereo unspecified) | 105 °C |
| CC(=O)NC[C@H]1CN(c2ccc(N3CCC(n4ncn(C)c4=S)CC3)c(F)c2)C(=O)O1 | 182 to 185 °C |
| Nn1cnc2ccccc2c1=O | 209 to 210 °C |
| CCCN1C(=O)N(C2CCN(Cc3cccc(CO)c3)CC2)C(c2ccccc2)c2ccccc21 (stereo unspecified) | 108 to 112 °C |
| COC(=O)NC1CCCCC1 | 73 to 74 °C |
| CC1(O)CC(=O)OC(C=Cc2ccccc2)C1(C)Br (stereo unspecified) | 121 to 123 °C |
| C[C@H]1CC[C@@H](OC(=O)c2nc(Cl)n3c2[C@@H]2CCCN2C(=O)c2ccccc2-3)CC1 | 176 to 177 °C |
| Cn1nc(-c2nc(C#N)c(C#N)nc2-c2ccccc2)ccc1=O | 210 to 212 °C |
| CC(C)(C)[Si](C)(C)Oc1ccc2c3c1OC1C(C4OCCO4)CCC4(O)C(C2)N(CC2CC2)CCC314 (stereo unspecified) | 108 to 109 °C |
| N#Cc1ccc(COc2ccc(CC(NC(=O)c3cc4ccc(-c5ccc(Cl)cc5)cc4o3)C(=O)O)cc2)cc1 (stereo unspecified) | 204 °C |
| Cc1ccc(S(=O)(=O)ON=C2CC(c3ccccc3)Oc3ccccc32)cc1 (stereo unspecified) | 141 to 143 °C |
| Cc1cc(N2CCC3(CC2)OCCO3)nn2cnnc12 | 156 to 157 °C |
| Cc1ccccc1C(=O)Nc1ccc(C(=O)N2CCCC(C)(O)c3ccccc32)cc1 (stereo unspecified) | 204 to 205 °C |
| N#CCC(=O)NCc1ccccn1 | 82 to 83 °C |
| Nc1ccccc1CCN1CCN(c2nsc3ccccc23)CC1 | 149 °C |

| SMILES | melting point |
| --- | --- |
| COc1ccc2c(c1)[C@H](c1ccccc1)CN(C)CC2 | 50 to 51 °C |
| CCC[C@H]1CC[C@H](CCc2ccc(-c3ccc(C#N)cc3F)cc2)CC1 | 89.4 °C |
| NC(=O)C(N)c1c(Cl)cccc1Cl (stereo unspecified) | 166 °C |
| O=c1[nH]cnc2c(Br)scc12 | 226 to 229 °C |
| CC(C)(CO)NS(=O)(=O)c1cnc(NC(=O)c2cnn3c(C(F)F)cc(-c4ccc(C(F)(F)F)cc4)nc23)s1 | 280 °C |
| COc1ccc(CN2CCC(c3cn(Cc4ccoc4)c4cc(F)ccc34)CC2)cc1C(=O)O | 228 to 229 °C |
| Nc1cccc2c1OC1(CC1)C2=O | 136 °C |
| Cc1ccn(-c2ccc(C(=O)c3cccc4c3Nc3ncccc3CN4)c(F)c2)n1 | 122 to 125 °C |
| COc1ccc2c(NCCN3CCOCC3)noc2c1 | 85 to 86 °C |
| CC(=O)Nc1c(C(=O)c2ccccn2)[nH]c2cc(Cl)ccc12 | 211 to 212 °C |
| Cc1c(NC(=O)c2ccc(C#CC3(O)CCC3)cc2)ccc2cc(CNCC(C)C)n(C)c12 | 222 to 223 °C |
| COc1ccc(C(F)(F)C(F)(F)F)cc1-c1csc(N)n1 | 125 °C |
| COc1cc(C2C3=C(COC3=O)Nc3ccc4nc(C)sc4c32)ccc1O (stereo unspecified) | 293 to 295 °C |
| CC(C)C1COCc2nc3c(N)nc4ccccc4c3n21 (stereo unspecified) | 249 to 250 °C |
| ClCCCn1c2ccccc2c2cc(-c3nc(C4CC4)no3)ncc21 | 165 to 169 °C |
| CC(C)(C)C(=O)c1cnn2cccnc12 | 130 to 131 °C |
| O=C(O)C1CCC2C(=O)N(c3ccccc3)C(=S)N12 (stereo unspecified) | 230 °C |
| CC(/C=C/c1c(C)sc(C)c1C)=C(F)\C=C\C(C)=C\CO | 106 to 108 °C |
| Cn1nc(-c2ccccc2)nc1-c1ccncc1 | 132 to 134 °C |
| Nc1nc2ccccc2c2c1ncn2CCCCNC(=O)N1CCOCC1 | 177 to 180 °C |
| O=C1CCC(N2C(=O)c3cccc(OCc4ccc(CN5CCC(c6ccccc6)CC5)cc4)c3C2=O)C(=O)N1 (stereo unspecified) | 142 to 144 °C |
| CC(=O)Nc1nc(C)c(CCN2CCC(=C(c3ccc(F)cc3)c3ccc(F)cc3)CC2)c(=O)n1C | 141 °C |

| SMILES | melting point |
| --- | --- |
| O=C(N1c2ccccc2C(Br)C(Br)c2ccccc21)C(F)(F)F (stereo unspecified) | 186 to 189 °C |
| COc1ccc2c(c1)CCC1C2CCC2(C)C1CCC2N(C=O)CCOCCO (stereo unspecified) | 134 to 135 °C |
| Cc1cc(Nc2ccnc(Nc3ccc(S(=O)(=O)N(C)C4CCN(Cc5cncs5)CC4)cc3)n2)ccc1F | 196 to 197 °C |
| CC1COCc2nc3cnc4cc(C=CS(C)(=O)=O)ccc4c3n21 (stereo unspecified) | 249 to 250 °C |
| CCN1CCOc2nc(Cl)c(Cl)nc21 | 108 to 110 °C |
| COc1cc(Nc2nccc(-c3ccc(N4CC(C)NC(C)C4)nc3)n2)cc(OC)c1OC (stereo unspecified) | 110 to 111 °C |
| c1cncc(-c2nnc(NCC3CC3)s2)c1 | 162 to 165 °C |
| Cc1ccc(C(=O)c2cnn3c(-c4cccc(N(C)C(=O)C5CC5)c4)ccnc23)cc1 | 189 to 190 °C |
| CNC(=O)c1cc2c(Oc3ccc(C(F)(F)F)cc3)cnc(Cl)c2s1 | 178 to 179 °C |
| O=C1OCC(C(F)(F)F)N1c1nc(-c2ccc(Br)cc2)cs1 (stereo unspecified) | 154 to 156 °C |
| CC(=O)CC(C)(C)Cn1cnc2c(N)nc3ccccc3c21 | 214 to 216 °C |
| COc1ccc(Nc2nccc3ccn(S(=O)(=O)c4ccc(OC)cc4)c23)cc1 | 156 to 158 °C |
| O=c1c2ccccc2ccc2cc(CCO)ccc12 | 73 to 75 °C |
| COC1=CC(=O)N([C@@H]2c3cc(C#N)ccc3OC(C)(C)[C@H]2O)C1 (relative stereo) | 225 °C |
| N#Cc1ccc(CCC(O)C2CC2)cc1 (stereo unspecified) | 70 to 71 °C |
| COc1cc(-c2cccc3ccccc23)nc(N)n1 | 160 °C |
| CN1C(=O)c2c(n3ccnc3c3c2c2cccnc2n3C2OC(CO)C(O)C(O)C2O)C1=O (stereo unspecified) | 298 °C |
| Fc1cc(Br)cc(OCc2ccc3ccccc3c2)c1 | 65 to 67 °C |
| Cc1ccc(C[C@@H](NC(=O)c2cccc3c2C=CCCC3)[C@@H](O)c2ccc(F)cc2)cc1OC(F)(F)C(F)F (racemic) | 168 to 169 °C |
| NC(=O)c1sc2nccc(OC3CCCCCC3)c2c1N | 179 to 180 °C |
| CC(C)(C)[NH+]([O-])C(=O)Nc1ccnc(-c2ccncc2)n1 (stereo unspecified) | 125 to 150 °C |
